# Source: patent publication US10610535B2 (The Regents of the University of California, priority 2005, dated 2020)
# Experiments:
# [1] = system: post-partum patient with relapsing remitting multiple sclerosis; assay: Case of post-partum relapsing remitting MS patient; format: in vivo, human
# Description: A patient was diagnosed as having relapsing remitting multiple sclerosis. Following the delivery of their first child (now […]), the patient was treated only with Copaxone and relapsed at 6 weeks. Following the delivery of their second child (now […]), the patient was again treated with Copaxone alone and again relapsed, this time at 4.5 months. Following a subsequent pregnancy, the patient was treated with 8 mg estriol/day in an attempt to prevent their post partum relapses.
# Following the birth of the patient's third child (now 6 months), the patient resumed treatment with Copaxone as before. However, on day 10 post-partum they began taking estriol 8 mg/daily in an oral dosage form. […] Since monthly brain MRIs with gadolinium to detect enhancing MS lesions are more sensitive for inflammatory disease activity than relapses, the patient underwent serial monthly MRIs at post partum months 4, 5, and 6.
# The patient doubled the progesterone minipill for 2 weeks to stabilize the endometrium. Otherwise no adverse events have been reported.
# [2] = system: spinal cords of mice with EAE; assay: Spinal cord histopathology and immunohistochemistry in EAE (Example 5); format: in vivo; conditions: acute phase of EAE
# From the text: Mice were deeply anesthetized with isoflurane and perfused transcardially with ice-cold 0.9% saline, followed by 10% formalin. Spinal cord columns were removed and postfixed overnight in 10% formalin and cryoprotected with 20% sucrose solution, in PBS. Spinal cords were removed from the column, cut in three parts (cervical, thoracic, and lumbar), and embedded in gelatin/sucrose mix. Spinal cord regions in gelatin were further postfixed and stored in 20% sucrose. Free-floating sections (25 μm thick) were cut coronally with a sliding microtome and collected serially in PBS. […]
# To quantify immunostaining results, sections from spinal cord levels T1-T5 were examined, six from each mouse, with n=3 mice per treatment group, for a total of 18 sections per treatment group. […] All images were converted to grayscale and then analyzed by density measurement with ImageJ version 1.29 (the Windows version of NIH Image), downloaded from rsb.info.nih.gov/ij. A fixed threshold range of 0-160 was chosen to highlight the staining signals in normal spinal cord sections, and the total area within this range was measured, averaged, and compared.
# Increase in total number of infiltrating cells after induction of EAE was measured by density measurements of DAPI+nuclei in the whole white matter. Neuronal cells were quantified by counting the NeuN+/β3-tubulin+/DAPI+ cells per square millimeter in the whole gray matter. […]
# C57BL/6 mice with EAE [3] = assay: Rotarod testing of motor performance during EAE; format: in vivo
# Description: Motor behavior was tested up to two times per week for each mouse using a rotarod apparatus (Med Associates mc, St. Albans, Vt.). Briefly, animals were placed on a rotating horizontal cylinder for a maximum of 200 seconds. The amount of time the mouse remained walking on the cylinder, without falling, was recorded. Each mouse was tested on a speed of 3-30 rpm and given three trials for any given day. The three trials were averaged to report a single value for an individual mouse, and then averages were calculated for all animals within a given treatment group. The first two trial days, prior to immunization (day 0), served as practice trials.
# EAE clinical disease severity was compared between treatment groups using the Friedman test; histopathological changes were assessed using 1×4 ANOVAs; uterine weights, proliferative responses and cytokine levels were compared between treatment groups using Student t-test, and time on rotorod was compared between treatment groups using ANOVA.
# C57BL/6 mice with EAE [4] = assay: Clinical severity of MOG 35-55 induced active EAE (Example 6); format: in vivo; conditions: vs vehicle
# [5] = system: MOG 35-55 stimulated splenocytes; assay: Autoantigen specific cytokine production by splenocytes in C57BL/6 EAE (Example 6); format: in vivo, mice; conditions: vs vehicle
# Description: (§1) Spleens were harvested either after deep anesthesia prior to perfusion or after euthanasia. Splenocytes were stimulated with the indicated autoantigens at […], and proliferation assessed using standard H3 incorporation assays, as described. Supernatants were collected after 48 and 72 hours, and levels of TNF-i, IFN-γ, 11,6, and 1 L5 were determined by cytometric bead array (BD Biosciences), as described. EAE clinical disease severity was compared between treatment groups using the Friedman test; histopathological changes were assessed using 1×4 ANOVAs; uterine weights, proliferative responses and cytokine levels were compared between treatment groups using Student t-test, and time on rotorod was compared between treatment groups using ANOVA.
# [6] = system: spinal cords of mice with EAE; assay: Spinal cord histopathology and immunohistochemistry in EAE (Example 6); format: in vivo
# From the text: Mice were deeply anesthetized with isoflurane and perfused transcardially with ice-cold 0.9% saline, followed by 10% formalin. Spinal cord columns were removed and post-fixed overnight in 10% formalin and cryoprotected with 20% sucrose solution in PBS. Spinal cords were removed from the column and cut in 3 parts (cervical, thoracic and lumbar) and embedded in gelatin/sucrose mix. Spinal cord regions in gelatin were further postfixed and stored in 20% sucrose. Free-floating sections (25 μm thick) were cut coronally with a sliding microtome and collected serially in PBS.
# Serial sections were mounted on slides and stained with Hematoxylin & eosin (H&E) or Nissl. Consecutive sections were also examined by immunohistochemistry. Briefly, 25 μm free-floating sections were permeabilized in 0.3% Triton X-100 in PBS and blocked with 10% normal goat serum. White matter immunostaining was enhanced by treating sections with 95% ethanol/5% acetic acid for 15 minutes prior to permeabilization and blocking. To detect specific cell types and structures, sections were pre-incubated with primary antibodies in PBS solution containing 2% NGS for 2 hours at room temperature, then overnight at […]. The following primary antibodies were used: anti-133 tubulin and anti-neurofilament-NF200 (monoclonal, Chemicon; polyclonal Sigma Biochemical), anti-neuronal specific nuclear protein (NeuN), anti-CD4S (Chemicon), and anti-MW (Chemicon). The second antibody step was performed by labeling with antibodies conjugated to TRITC, FITC and Cy5 (Vector Labs and Chemicon). IgG-control experiments were performed for all primary antibodies, and no staining was observed under these conditions. To assess the number of cells, a nuclear stain 4′,6-Diamidino-2-phenylindole, DAPI (2 ng/ml; Molecular Probes) was added for 15 minutes prior to final washes after secondary antibody addition. The sections were mounted on slides, dried and coverslipped in fluoromount G (Fisher Scientific).
# To quantify immunostaining results, sections from spinal cord levels T1-T5 were examined, six from each mouse, with n=3 mice per treatment group, for a total of 18 sections per treatment group. Images were captured under microscope (4×, 10× or 40×) using the DP70 Image software and a DP70 camera (both from Olympus). Identical tight intensity and exposure times were applied to all photographs from each experimental set. Images from the same areas of spinal cord were compared (TI-IS) and were acquired separately from delineated whole gray and white mailer regions. The middle region of the ventral horn was the focus for gray matter analysis, while the area lateral to the ventral horn was the focus for white matter analysis. Six gray matter and six white matter pictures were collected from the two sides of TI-IS sections (100 jim apart) from three animals in each treatment group. All images were converted to grayscale and then analyzed by density measurement with ImageJ vi 0.29 (the Windows version of NIH Image), downloaded from rsb.info.nih.gov/ij. A fixed threshold range of 0 to 160 was chosen to highlight the staining signals in normal spinal cord sections, and the total area within this range was measured, averaged, and compared.
# Increase in total number of infiltrating cells after induction of EAE was measured by density measurements of DAPI nuclei in the whole white matter. Neuronal cells were quantified by counting the NeuN^+/β3-tubulin^+/DAPI^+ cells per mm2 in the whole gray matter. Both white and gray matter assessments occurred in the TI-IS spinal cord sections. Laser scanning confocal microscopic scans at 40× were performed on Mac 3^+/β3-tubulin^+ immunostained spinal cord sections corresponding to levels 11-15 ventral horn. […]
# SJL mice with EAE = assay: PLP 139-151 induced active EAE in SJL mice, relapses; format: in vivo
# [7] = system: PLP 139-151 stimulated splenocytes; assay: Splenic immune responses (proliferation, cytokines) in SJL mice with EAE; format: in vivo; conditions: day 52 after disease induction, vs vehicle
# Description: as §1
# [8] = system: uterus (positive control tissue) of ovariectomized C57BL/6 mice; assay: Uterine weights to assess dosing (Example 6); format: in vivo
# Description: Uterine weight was used as a positive control to assess dosing of estrogen agonists. Daily subcutaneous injections of vehicle, estradiol, PPT, or DPN, as well as a combination of ITT with DPN, were administered for ten days at indicated doses to ovariectomized mice. Following euthanasia, the uterus was extracted, then fat, connective tissue, and excess fluid removed in order to obtain the uterine weight, as described. EAE clinical disease severity was compared between treatment groups using the Friedman test; histopathological changes were assessed using 1×4 ANOVAs; uterine weights, proliferative responses and cytokine levels were compared between treatment groups using Student t-test, and time on rotorod was compared between treatment groups using ANOVA.
# [9] = early (day 19) and later (day 40) stages of EAE
# [10] = day 19 and day 40, vs normal mice
molecule,measurement,setting,value
glatiramer acetate copolymer-1 [Copaxone],Time to post-partum relapse,"[1]; Copaxone alone, after delivery of second child",4.5 months
same,Time to post-partum relapse,"[1]; Copaxone only, after delivery of first child",6 weeks
"CCCc1c(-c2ccc(O)cc2)nn(-c2ccc(O)cc2)c1-c1ccc(O)cc1 [PPT, propyl pyrazole triol]",Decrease of Mac 3+ cells in gray matter compared with vehicle-treated EAE mice,[2],~65%
"N#CC(Cc1ccc(O)cc1)c1ccc(O)cc1 (centres unmarked) [DPN, Diarylpropionitrile]",Mean time on rotarod (motor function),"C57BL/6 mice with EAE [3]; ERβ KO mice with EAE, later phase of disease",no improvement was observed
same,Mean time on rotarod (motor function),"C57BL/6 mice with EAE [3]; ovariectomized wild type C57BL/6 with EAE, after day 30",significant recovery of motor function
same,Clinical scores (EAE 0-5 scale),"C57BL/6 mice with EAE [4]; DPN 8 mg/kg/day s.c., ovariectomized C57BL/6, early in disease (up to day 20 after induction)",not significantly different
same,Clinical scores (EAE 0-5 scale),"C57BL/6 mice with EAE [4]; DPN 8 mg/kg/day s.c., ovariectomized C57BL/6, later during EAE (following day 30 after induction)",significantly improved
same,Clinical scores (EAE 0-5 scale),"C57BL/6 mice with EAE [4]; DPN, ovariectomized ERβ KO C57BL/6 mice",no different
same,Anti-inflammatory cytokine IL5,[5]; [9],not statistically different from vehicle treatment
same,"Levels of proinflammatory cytokines (TNFα, IFNγ, and IL6)",[5]; [9],not statistically different from vehicle treatment
same,IL10 production,[5],No differences
same,"White matter cell density, myelin density, axonal numbers and NeuN+ cells","[6]; ERβ knock out mice with EAE, day 38-40",does not prevent white and gray matter pathology
same,MBP immunoreactivity in dorsal column (myelin density),[6]; [10],no significant decreases
same,Neurofilament stained axon numbers in white matter,[6]; [10],no significant reduction in axon numbers
same,NeuN+ cell numbers in gray matter,"[6]; early (day 19) and later (day 40) time points, vs healthy controls","fewer, but not significantly different from those in healthy controls"
same,CD45 staining in white matter,"[6]; early and later time points, vs vehicle treated EAE",did not have reduced CD45 staining
same,"Inflammation, white matter cell density (DAPI+ cells) of thoracic cord","[6]; early stage of EAE (day 19), vs vehicle treated EAE",not significantly different from those in vehicle treated
same,"Inflammation, white matter cell density (DAPI+ cells) of thoracic cord","[6]; later time point (day 40), vs vehicle",no different from that in vehicle treated
same,Relapses (mice with relapse / mice),"SJL mice with EAE; DPN treated SJL mice, relapses between days 36 and 52, vehicle 10/13",5/13
same,Relapses (percent of mice),"SJL mice with EAE; DPN treated SJL mice, relapses between days 36 and 52, vehicle 77%",33%
same,"Incidence, day of onset, peak clinical scores","SJL mice with EAE; DPN vs vehicle, SJL mice",no difference
same,"Cytokine (TNFα, IFNγ) production during the PLP 139-151 specific response",[7],No significant differences
same,Proliferation during the PLP 139-151 specific response,[7],No significant differences
same,PPT 3.3 mg/kg/day mediated increase in uterine weight,"[8]; DPN 8 mg/kg/day in combination with PPT, 10 days",antagonized
same,Uterine weight,"[8]; DPN alone 8 mg/kg/day s.c. for 10 days, ovariectomized C57BL/6",no effect on uterine weight
"C[C@]12CC[C@@H]3c4ccc(O)cc4CC[C@H]3[C@@H]1CC[C@@H]2O [estradiol, 17β-estradiol]",Decrease of Mac 3+ cells in gray matter compared with vehicle-treated EAE mice,[2],~65%
